Test results taken from patent US20090105266A1, “Organic compounds” (priority 2007, published 2009).

Biological target: T1, mGluR5 (Homo sapiens, UniProt P41594)
T1 construct: expressed in transfected cells
Assay: inhibition of the glutamate (agonist) induced elevation of the inositol phosphate turnover
Type: cell-based
Conditions: inhibition of glutamate induced elevation of inositol phosphate turnover at 0.1 μM
Source text: This can be determined in vitro for example at recombinant human metabotropic glutamate receptors, especially PLC-coupled subtypes thereof such as mGluR5, using different procedures like, for example, measurement of the inhibition of the agonist induced elevation of intracellular Ca^2+ concentration in accordance with L. P. Daggett et al., Neuropharm. Vol. 34, pages 871-886 (1995), P. J. Flor et al., J. Neurochem. Vol. 67, pages 58-63 (1996) or by determination to what extent the agonist induced elevation of the inositol phosphate turnover is inhibited as described by T. Knoepfel et al., Eur. J. Pharmacol. Vol. 288, pages 389-392 (1994), L. P. Daggett et al., Neuropharm. Vol. 67, pages 58-63 (1996) and references cited therein. Isolation and expression of human mGluR subtypes are described in U.S. Pat. No. 5,521,297. Selected agents of the invention show IC50 values for the inhibition of the agonist (e.g. glutamate or quisqualate) induced elevation of intracellular Ca2+ concentration or the agonist (e.g. glutamate or quisqualate) induced inositol phosphate turnover, measured in recombinant cells expressing hmGluR^5a of about 0.1 nM to about 50 μM.
Activity of compounds of the present invention was examined by determination to what extent the agonist induced elevation of the inositol phosphate turnover is inhibited as described by T. Knoepfel et al., Eur. J. Pharmacol. Vol. 288, pages 389-392 (1994), L. P. Daggett et al., Neuropharm. Vol. 67, pages 58-63 (1996) and references cited therein.
The table below represents percentages of inhibition of the glutamate induced elevation of the inositol phosphate turnover at a concentration of 0.1 μM.

T1 sequence (P41594 21-1180 isoform P41594-2 limits assumed): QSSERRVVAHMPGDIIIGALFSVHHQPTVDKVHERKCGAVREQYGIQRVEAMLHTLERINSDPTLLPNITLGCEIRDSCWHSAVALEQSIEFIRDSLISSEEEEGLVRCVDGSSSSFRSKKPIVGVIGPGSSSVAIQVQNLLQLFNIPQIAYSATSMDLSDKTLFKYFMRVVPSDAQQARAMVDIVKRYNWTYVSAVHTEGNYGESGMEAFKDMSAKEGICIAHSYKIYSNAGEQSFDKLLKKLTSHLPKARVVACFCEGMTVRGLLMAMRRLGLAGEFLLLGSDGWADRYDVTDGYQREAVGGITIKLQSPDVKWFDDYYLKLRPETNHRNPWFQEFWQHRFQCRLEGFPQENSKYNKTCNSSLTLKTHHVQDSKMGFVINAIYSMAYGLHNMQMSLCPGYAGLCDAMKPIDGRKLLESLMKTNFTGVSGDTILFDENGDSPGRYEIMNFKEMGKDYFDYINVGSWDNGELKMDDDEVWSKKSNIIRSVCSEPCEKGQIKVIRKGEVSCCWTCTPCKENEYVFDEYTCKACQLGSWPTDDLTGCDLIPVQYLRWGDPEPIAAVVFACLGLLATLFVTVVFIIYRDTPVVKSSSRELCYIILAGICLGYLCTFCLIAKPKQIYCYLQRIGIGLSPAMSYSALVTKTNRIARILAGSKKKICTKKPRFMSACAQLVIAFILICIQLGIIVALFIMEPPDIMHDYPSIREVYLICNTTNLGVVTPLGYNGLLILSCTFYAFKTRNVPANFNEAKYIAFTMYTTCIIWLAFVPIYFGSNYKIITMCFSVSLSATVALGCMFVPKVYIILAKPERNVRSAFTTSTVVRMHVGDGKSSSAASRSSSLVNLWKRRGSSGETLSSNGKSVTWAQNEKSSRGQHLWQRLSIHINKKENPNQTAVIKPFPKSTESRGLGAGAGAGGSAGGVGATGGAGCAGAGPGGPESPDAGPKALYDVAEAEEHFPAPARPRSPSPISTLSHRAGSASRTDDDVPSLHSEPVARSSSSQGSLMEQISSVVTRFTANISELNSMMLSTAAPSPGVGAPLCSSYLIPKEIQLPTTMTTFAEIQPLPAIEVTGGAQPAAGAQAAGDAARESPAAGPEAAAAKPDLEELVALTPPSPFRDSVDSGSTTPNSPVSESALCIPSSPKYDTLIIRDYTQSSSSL

| Compound | inhibition at 0.1 µM | mGluR5-activity in [%] inhibition at 0.1 μM |
| --- | --- | --- |
| CCCn1c(-c2cnc(Nc3ccc(N(C)C)nc3)c(Cl)c2)nc2cccc(Cl)c21 [Example 70, N-5-[3-Chloro-5-(7-chloro-1-propyl-1H-benzoimidazol-2-yl)-pyridin-2-yl]-N2,N-2-dimethyl-pyridine-2,5-diamine] |  | 90% |
| CCCn1c(-c2cnc(Nc3ccc(NC(C)=O)nc3)c(Cl)c2)nc2ccc(F)cc21 [Example 71, N-{5-[3-Chloro-5-(6-fluoro-1-propyl-1H-benzoimidazol-2-yl)-pyridin-2-ylamino]-pyridin-2-yl}-acetamide] | 20% |  |
| CCCn1c(-c2cnc(Nc3ccc(N)nc3)c(Cl)c2)nc2ccc(F)cc21 [Example 71b, N-5-[3-Chloro-5-(6-fluoro-1-propyl-1H-benzoimidazol-2-yl)-pyridin-2-yl]-pyridine-2,5-diamine] |  | 100% |
| CCCn1c(-c2cnc(Nc3cnccn3)c(Cl)c2)nc2cccc(Cl)c21 [Example 72, [3-Chloro-5-(7-chloro-1-propyl-1H-benzoimidazol-2-yl)-pyridin-2-yl]-pyrazin-2-yl-amine] | 96% |  |
| CCCn1c(-c2cnc(Nc3cc(C)no3)c(Cl)c2)nc2cccc(Cl)c21 [Example 73, [3-Chloro-5-(7-chloro-1-propyl-1H-benzoimidazol-2-yl)-pyridin-2-yl]-(3-methyl-isoxazol-5-yl)-amine] | 98% |  |
| CCCn1c(-c2cnc(Nc3ccc(C(=O)OC)nc3)c(Cl)c2)nc2cccc(Cl)c21 [Example 75d, 5-[3-Chloro-5-(7-chloro-1-propyl-1H-benzoimidazol-2-yl)-pyridin-2-ylamino]-pyridine-2-carboxylic acid methyl ester] | 100% |  |
| CCCn1c(-c2cnc(Nc3ccc(N)nc3)c(Cl)c2)nc2cccc(Cl)c21 [Example 75e, N-5-[3-Chloro-5-(7-chloro-1-propyl-1H-benzoimidazol-2-yl)-pyridin-2-yl]-pyridine-2,5-diamine] |  | 100% |
| CCCn1c(-c2cnc(Nc3ccc(CO)nc3)c(Cl)c2)nc2cccc(Cl)c21 [Example 75f, {5-[3-Chloro-5-(7-chloro-1-propyl-1H-benzoimidazol-2-yl)-pyridin-2-ylamino]-pyridin-2-yl}-methanol] | 92% |  |
| CCCn1c(-c2ccc(Nc3ccc(C)nc3)cc2)nc2ccc(F)cc21 [Example 79, [4-(6-Fluoro-1-propyl-1H-benzoimidazol-2-yl)-phenyl]-(6-methyl-pyridin-3-yl)-amine] | 65% |  |
| CCCn1c(-c2ccc(Nc3ccc(Cl)cc3)cc2)nc2cccc(Cl)c21 [Example 81, (4-Chloro-phenyl)-[4-(7-chloro-1-propyl-1H-benzoimidazol-2-yl)-phenyl]-amine] | 96% |  |
| CCCn1c(-c2ccc(Nc3ccc(OC)cc3)cc2)nc2cccc(Cl)c21 [Example 82, [4-(7-Chloro-1-propyl-1H-benzoimidazol-2-yl)-phenyl]-(4-methoxy-phenyl)-amine] | 88% |  |
| CCCn1c(-c2ccc(Nc3ccc(C)cc3)cc2)nc2ccc(F)cc21 [Example 83, [4-(6-Fluoro-1-propyl-1H-benzoimidazol-2-yl)-phenyl]-p-tolyl-amine] | 52% |  |
| CCCn1c(-c2ccc(Nc3ccc(Cl)cc3)nn2)nc2cccc(Cl)c21 [Example 87, (4-Chloro-phenyl)-[6-(7-chloro-1-propyl-1H-benzoimidazol-2-yl)-pyridazin-3-yl]-amine] | 47% |  |
| CCCn1c(-c2ccc(Nc3ccc(C)nc3)nn2)nc2cccc(Cl)c21 [Example 88, [6-(7-Chloro-1-propyl-1H-benzoimidazol-2-yl)-pyridazin-3-yl]-(6-methyl-pyridin-3-yl)-amine] | 97% |  |
| CCCn1c(-c2cnc(Nc3ccc(Cl)cc3)nc2)nc2cccc(Cl)c21 [Example 91, (4-Chloro-phenyl)-[5-(7-chloro-1-propyl-1H-benzoimidazol-2-yl)-pyrimidin-2-yl]-amine] | 100% |  |
| CCCn1c(-c2cnc(Nc3ccc(C)nc3)nc2)nc2cccc(Cl)c21 [Example 92, [5-(7-Chloro-1-propyl-1H-benzoimidazol-2-yl)-pyrimidin-2-yl]-(6-methyl-pyridin-3-yl)-amine] | 99% |  |
| CCCn1c(-c2cnc(Nc3ccc(OC)cc3)nc2)nc2ccc(F)cc21 [Example 93, [5-(6-Fluoro-1-propyl-1H-benzoimidazol-2-yl)-pyrimidin-2-yl]-(4-methoxy-phenyl)-amine] | 34% |  |
| CCCn1c(-c2ccc(Nc3ccc(C)nc3)c(Cl)c2)nc2ccccc21 [Example 94, [2-Chloro-4-(1-propyl-1H-benzoimidazol-2-yl)-phenyl]-(6-methyl-pyridin-3-yl)-amine] | 97% |  |
| CCCn1c(-c2ccc(Nc3ccc(C)cc3)c(Cl)c2)nc2cccc(Cl)c21 [Example 95, [2-Chloro-4-(7-chloro-1-propyl-1H-benzoimidazol-2-yl)-phenyl]-p-tolyl-amine] | 63% |  |

Continued, in another order:

| inhibition at 0.1 µM | Compound | mGluR5-activity in [%] inhibition at 0.1 μM |
| --- | --- | --- |
| 99% | CCCn1c(-c2cnc(Nc3ccc(OC)nc3)c(Cl)c2)nc2cccc(Cl)c21 [Example 74, [3-Chloro-5-(7-chloro-1-propyl-1H-benzoimidazol-2-yl)-pyridin-2-yl]-(6-methoxy-pyridin-3-yl)-amine] |  |
| 99% | CCCn1c(-c2cnc(Nc3ccc(OC)cc3)c(Cl)c2)nc2cccc(Cl)c21 [Example 75, [3-Chloro-5-(7-chloro-1-propyl-1H-benzoimidazol-2-yl)-pyridin-2-yl]-(4-methoxy-phenyl)-amine] |  |
| 99% | CCCn1c(-c2cnc(Nc3ccc(C#N)nc3)c(Cl)c2)nc2cccc(Cl)c21 [Example 75b, 5-[3-Chloro-5-(7-chloro-1-propyl-1H-benzoimidazol-2-yl)-pyridin-2-ylamino]-pyridine-2-carbonitrile] |  |
| 100% | CCCn1c(-c2cnc(Nc3ccc(NC(C)=O)nc3)c(Cl)c2)nc2cccc(Cl)c21 [Example 75c, N-{5-[3-Chloro-5-(7-chloro-1-propyl-1H-benzoimidazol-2-yl)-pyridin-2-ylamino]-pyridin-2-yl}-acetamide] |  |
| 99% | CCCn1c(-c2ccc(Nc3ccc(C)nc3)cc2)nc2cccc(Cl)c21 [Example 78, [4-(7-Chloro-1-propyl-1H-benzoimidazol-2-yl)-phenyl]-(6-methyl-pyridin-3-yl)-amine] |  |
| 90% | CCCn1c(-c2ccc(Nc3ccc(C)cc3)cc2)nc2cccc(Cl)c21 [Example 80, [4-(7-Chloro-1-propyl-1H-benzoimidazol-2-yl)-phenyl]-p-tolyl-amine] |  |
| 60% | CCCn1c(-c2ccc(Nc3ccc(OC)cc3)nn2)nc2cccc(Cl)c21 [Example 86, [6-(7-Chloro-1-propyl-1H-benzoimidazol-2-yl)-pyridazin-3-yl]-(4-methoxy-phenyl)-amine] |  |
| 102% | CCCn1c(-c2cnc(Nc3ccc(OC)cc3)nc2)nc2cccc(Cl)c21 [Example 90, [5-(7-Chloro-1-propyl-1H-benzoimidazol-2-yl)-pyrimidin-2-yl]-(4-methoxy-phenyl)-amine] |  |
| 85% | CCCn1c(-c2ccc(Nc3ccc(Cl)cc3)c(Cl)c2)nc2cccc(Cl)c21 [Example 96, [2-Chloro-4-(7-chloro-1-propyl-1H-benzoimidazol-2-yl)-phenyl]-(4-chloro-phenyl)-amine] |  |
